From publication PMC9604388, “Purification and Functional Characterization of a Soluble Trehalase in Lissorhoptrus oryzophilus (Coleoptera: Curculionidae)” (Insects, 2022)

Test system: T1, LoTRE1
T1 construct: whole coding region incl. predicted signal peptide (1-25) by primers (ORF 1839 bp, 612 aa, 70833 Da); E. coli Rosetta (DE3), Ni-NTA; ~70 kDa
Experiment: […],5-dinitrosalicylic acid assay of released glucose
Assay type: biochemical, Lissorhoptrus oryzophilus
Conditions: PBS, pH 7.0, 50 °C, 30 min; substrate 1-10 mmol/L (Km above tested range)

OC[C@H]1O[C@H](O[C@H]2O[C@H](CO)[C@@H](O)[C@H](O)[C@H]2O)[C@H](O)[C@@H](O)[C@@H]1O [trehalose]
Km: 48.6 mM
